Structures can show the parent of a compound that is named as a salt. Where two headings read alike, the source gives them in different places.
Assays:
[1] = target: T1, 5-HT2 receptor (Rattus norvegicus, UniProt P14842); experiment: 5-HT2 receptor binding assay ([125I]DOI competition, cerebral cortex homogenates); details: 5-point, read-out: Rat Cerebral Cortex 5-HT2 IC50 5-pt (DOI)
Description: The assay mixture is incubated for 1 hour at 23° C. in polypropylene tubes and the assays terminated by rapid vacuum filtration over Whatman GF/B glass fiber filters previously soaked in 0.3% polyethyleneimine using ice-cold buffer. Test compounds (at different concentrations) are substituted for methiothepin. Filter-bound radioactivity is determined by scintillation spectrometry on a beta counter. The data are analyzed using a non-linear, iterative curve-fitting computer program [Trends Pharmacol. Sci., 16, 413 (1995)] to determine the compound affinity parameter.

[2] = target: T2, 5-HT2a (Rattus norvegicus, UniProt P14842); experiment: 5-HT2 functional assay: [Ca2+]i mobilization (FLIPR) in A7r5 cells; format: cell-based; details: for Emax: read-out: FLIPR 5-HT2a % Emax A7r5 Ca + 2
T2 construct: endogenous in cells; host or cells: A7r5 rat vascular smooth muscle cells
T2 sequence (P14842 whole entry): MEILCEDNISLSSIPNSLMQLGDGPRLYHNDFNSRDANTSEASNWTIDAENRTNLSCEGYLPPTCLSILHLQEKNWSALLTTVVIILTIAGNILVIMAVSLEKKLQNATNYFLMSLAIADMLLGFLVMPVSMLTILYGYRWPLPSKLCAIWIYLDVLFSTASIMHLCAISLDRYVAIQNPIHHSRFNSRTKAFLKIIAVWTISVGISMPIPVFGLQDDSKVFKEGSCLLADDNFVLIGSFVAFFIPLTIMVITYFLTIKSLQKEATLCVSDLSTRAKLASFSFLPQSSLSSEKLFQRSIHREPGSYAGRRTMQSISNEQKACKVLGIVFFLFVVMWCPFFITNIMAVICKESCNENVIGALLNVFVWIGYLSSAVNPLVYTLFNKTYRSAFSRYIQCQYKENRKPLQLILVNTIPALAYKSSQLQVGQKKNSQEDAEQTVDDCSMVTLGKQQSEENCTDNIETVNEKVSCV
Description: The receptor-mediated mobilization on intracellular calcium ([Ca^2+]i) was studied using the Fluorescence Imaging Plate Reader (FLIPR) instrument. Rat vascular smooth muscle cells, A7r5, were grown in a normal media of DMEM/10% FBS and 10 μg/mL gentamycin. Confluent cell monolayers were trypsinized, pelleted, and re-suspended in normal media. Cells were seeded in a 50 μL volume at a density of 20,000 cells/well in a black wall, 96-well tissue culture plate and grown for 2 days.
On the day of the experiment, one vial of FLIPR Calcium Assay Kit dye was re-suspended in 50 mL of a FLIPR buffer consisting of Hank's Balanced Salt Solution (HBSS), 20 mM HEPES, and 2.5 mM probenecid, pH 7.4. Cells were loaded with the calcium-sensitive dye by addition of an equal volume ([…]) to each well of the 96-well plate and incubated with dye for 1 h at 23° C.
Typically, test compounds were stored at 25 μM in 50% DMSO/50% Ethanol solvent. Compounds were diluted 1:50 in 20% DMSO/20% Ethanol. For “hit” screening, compounds were further diluted 1:10 in FLIPR buffer and tested at a final concentration of 10 μM. For dose-response experiments, compounds were diluted 1:50 in FLIPR buffer and serially diluted 1:10 to give a 5- or 8-point dose-response curve.
The compound plate and cell plate were placed in the FLIPR instrument. At the beginning of an experimental run, a signal test was performed to check the basal fluorescence signal from the dye-loaded cells and the uniformity of the signal across the plate. The basal fluorescence was adjusted between 8000–12000 counts by modifying the exposure time, the camera F-stop, or the laser power. Instrument settings for a typical assay were the following: laser power 0.3–0.6 W, camera F-stop F/2, and exposure time 0.4 sec. An aliquot (25 μL) of the test compound was added to the existing 100 μL dye-loaded cells at a dispensing speed of 50 μL/sec. Fluorescence data were collected in real-time at 1.0 sec intervals for the first 60 secs and at 6.0 sec intervals for an additional 120 secs. Responses were measured as peak fluorescence intensity minus basal and where appropriate were expressed as a percentage of a maximum 5-HT-induced response.

[3] = monkey; Wang et al. 1997/1998; attributed to α1A receptor activity; cited from earlier work
[4] = target: T1, 5-HT2 receptor; experiment: 5-HT2 functional assay: phosphoinositide (PI) turnover in A7r5 cells; format: cell-based; design: [^3H]myo-inositol-labeled A7r5 rat vascular smooth muscle cells; endogenous in cells; host or cells: A7r5 rat vascular smooth muscle cells
Description: The relative agonist activity of serotonergic compounds at the 5-HT2 receptor can be determined in vitro using the ability of the compounds to stimulate the production of [^3H]inositol phosphates in [^3H]myo-inositol-labeled A7r5 rat vascular smooth muscle cells by their ability to activate the enzyme phospholipase C. These cells are grown in culture plates, maintained in a humidified atmosphere of 5% CO2 and 95% air and fed semi-weekly with Dulbecco's modified Eagle medium (DMEM) containing 4.5 g/L glucose and supplemented with 2 mM glutamine, 10 μg/ml gentamicin, and 10% fetal bovine serum. For the purpose of conducting the phosphoinositide (PI) turnover experiments, the A7r5 cells are cultured in 24-well plates as previously [J. Pharmacol. Expt. Ther. 286, 411 (1998)]. Confluent cells are exposed for 24–30 hrs to 1.5 μCi [^3H]-myo-inositol (18.3 Ci/mmol) in 0.5 ml of serum-free medium. Cells are then rinsed once with DMEM/F-12 containing 10 mM LiCl prior to incubation with the test agent (or solvent as the control) in 1.0 mL of the same medium for 1 hr at 37° C., after which the medium is aspirated and 1 ml of cold 0.1 M formic acid added to stop the reaction. The chromatographic separation of [^3H]-inositol phosphates ([^3H]-IPs) on an AG-1-X8 column is performed as previously described [J. Pharmacol. Expt. Ther. 286, 411 (1998)] with sequential washes with H2O and 50 mM ammonium formate, followed by elution of the total [^3H]-IPs fraction with 1.2 M ammonium formate containing 0.1 M formic acid. The eluate (4 mL) is collected, mixed with 15 ml scintillation fluid, and the total [^3H]-IPs determined by scintillation counting on a beta-counter. Concentration-response data are analyzed by the sigmoidal fit function of the Origin Scientific Graphics software (Microcal Software, Northampton, Mass.) to determine agonist potency (EC50 value) and efficacy (Emax).

[5] = rabbits; Osborne et al. 1996; cited from earlier work
[6] = A7r5 cells, percentage of maximum 5-HT-induced response
[7] = A7r5 cells, Ca2+ mobilization, read-out: FLIPR 5-HT2a EC50

T1 sequence (P14842 whole entry): as above

Compound	EC50 [2] [nM]	Emax [2, 6] [%]	other results
2-amino-1-(3,8-dimethoxy-naphthalen-2-yl)-propan-1-ol hydrochloride [Example 6]			IC50 [1]: 4.92 nM; FLIPR 5-HT2a % Emax A7r5 Ca + 2 [2, 6]: 17.8%
COc1ccccc1N1CCN(CCCNc2c(C)c(=O)n(C)c(=O)n2C)CC1 [5-methylurapidil]			effect on IOP [3]: lowers IOP
COc1cc(CC(C)N)c(OC)c2ccccc12 (centres unmarked) [Example 1, 2-(1,4-Dimethoxy-naphthalen-2-yl)-1-methylethylamine hydrochloride]	188	46.5	EC50 [4]: 238 nM; Emax ([4]; A7R5; read-out: Efficacy (Emax, %)): 118%
COc1cc(C(O)C(C)N)c(OC)c2ccccc12 (centres unmarked) [Example 2, 2-Amino-1-(1,4-dimethoxy-naphthalen-2-yl)-propan-1-ol hydrochloride]		26.9	EC50 [4]: 6810 nM; Emax ([4]; A7R5, read-out: Efficacy (Emax, %)): 113%; EC50 [2, 7]: 1490 nM
COc1cc([C@H](O)[C@@H](C)N)c(OC)c2ccccc12 [Example 3, (1S,2R)-2-Amino-1-(1,4-dimethoxy-naphthalen-2-yl)-propan-1-ol hydrochloride]		28.4	EC50 [2, 7]: 1410 nM
COc1c(CC(C)N)ccc2ccccc12 (centres unmarked) [Example 4, 2-(1-Methoxy-naphthalen-2-yl)-1-methylethylamine hydrochloride]	580	28.9	
COc1c(CC(C)N)cc(Br)c2ccccc12 (centres unmarked) [Example 5, 2-(4-Bromo-1-methoxy-naphthalen-2-yl)-1-methylethylamine hydrochloride]	1120	38.9	
CC(N)Cc1ccc2ccccc2c1O (centres unmarked) [Example 7, 2-(1-hydroxy-naphthalen-2-yl)-1-methylethylamine hydrochloride]		17.3	
COc1ccc(OC)c2cc(CC(C)N)ccc12 (centres unmarked) [Example 8, 2-(5,8-dimethoxy-naphthalen-2-yl)-1-methylethylamine hydrochloride]		2.6	
CCCN(CCC)C1CCc2cccc(O)c2C1 (centres unmarked) [Example 8-OH-DPAT, 8-hydroxydipropylaminotetralin]			effect on IOP [5]: reduces IOP
COc1cc(C(=O)C(C)N)c(OC)c2ccccc12 (centres unmarked) [Example 9, 2-amino-1-(1,4-dimethoxy-naphthalen-2-yl)-propan-1-one hydrochloride]		21.8	
CC(N)Cc1ccc2ccccc2c1 (centres unmarked) [Example 10, 2-(naphthalen-2-yl)-1-methylethylamine hydrochloride]		20.4	
COc1cc(CC(C)N)cc2ccccc12 (centres unmarked) [Example 11, 2-(4-methoxy-naphthalen-2-yl)-1-methylethylamine hydrochloride]	612	46.4	
COc1cc(CC(C)N)c(Br)c2ccccc12 (centres unmarked) [Example 12, 2-(1-Bromo-4-methoxy-naphthalen-2-yl)-1-methylethylamine hydrochloride]	911	37.4	

— patent publication US7071225B2, “Arylaminopropane analogues and their use for the treatment of glaucoma” (Alcon, Inc., priority 2001, dated 2006)
